Experimental data published in PMC10606064, “2-Aminothiazole-Flavonoid Hybrid Derivatives Binding to Tau Protein and Responsible for Antitumor Activity in Glioblastoma” (International Journal of Molecular Sciences, 2023).

Columns and labels:
Assay type in all cases: cell-based, human
U87 shTau cells [1] = assay: Cell cycle by flow cytometry (propidium iodide), U87 shTau; details: 48 h
Procedure: (§1) Measurements of cell cycle from DNA content were performed by flow cytometry as described before. Briefly, 4.10^5 cells in exponential growth were seeded in 6-well plates. After 24 h, they were treated with 10 µM of compounds for 48 h. Nocodazole was used as a positive control with a concentration of 1 µM. The trypsinized cells were harvested and then centrifuged (1200 rpm, 5 min, at room temperature). The cell pellet was resuspended in 1 mL of PBS 1× at 4 °C, and then an extra 4 mL of cold PBS was added to wash the pellet. Cells were then centrifuged again (1200 rpm, 5 min, at 4 °C). To fixate the cells, the pellet was resuspended in 100 µL of cold 70% ethanol, then an additional 900 µL was added and cells were incubated for 30 min at −20 °C. After that, 9 mL of cold PBS was added, and cells were centrifuged (2000 rpm, 5 min, at 4 °C) to remove ethanol. The cell pellet was then resuspended in the staining mix containing 50 µg.mL^−1 of propidium iodide (Molecular Probes, Paris, France) and 100 µg.mL^−1 of RNAse A (Sigma-Aldrich, Saint-Quentin-Fallavier, France) in PBS for 20 min at room temperature in darkness. Samples were analyzed on a Beckman–Coulter–Gallios flow cytometer using the Kaluza for Gallios Acquisition v1.0 software. Propidium iodide was excited at 488 nm, and fluorescence was analyzed at 620 nm on channel FL-3. For the analysis, there is considerable overlap between early S phase and G1 and between late S phase and G2/M due to broadening of the distribution caused by variability in the staining of the cells and instrumental variability. Therefore, the percentages of cells in the sub-G1, G1, S, and G2/M phases of the cell cycle were calculated using the Watson et al. algorithm for cell cycle analysis in Kaluza for Gallios Analysis v2.1 software. The software automatically adjusted gates based on PI median fluorescence intensity of the cells and their frequency among total cells. The number of cells in each phase was divided by the total number of analyzed cells, and the values were reported as percentage of the total cells for each cell cycle phase.

[2] = tested on: caspase 3 protein (Casp3) in U87 shCTRL and U87 shTau cells; assay: Caspase 3 expression by Western blot (apoptosis); details: both cell types, 48 h treatment
Procedure: Cells were lysed with freshly made RIPA buffer derivative (4.3 mL of TBS 1×, 50 µL of SDS 10%, 10 µL of EDTA 0.5 M, 500 µL of Triton 10×, and 1% inhibitors of protease and phosphatase). After 30 min of lysis at 4 °C under agitation, lysates were centrifuged at 10,000× g for 10 min at 4 °C. Equivalent amounts of proteins from the supernatant fraction were subjected to Western blot analysis. Protein samples were loaded (40 μg/lane) and separated on 10 or 12% sodium dodecyl sulfate-polyacrylamide gels. The separated proteins were transferred onto nitrocellulose blotting membrane using the Bio-Rad transfer system. Before blocking, the blots were stained with Ponceau red to visualize transfer efficiency. […] The band intensity was quantified using the ImageJ v1.50g software. […] The band intensity was quantified using the NIH ImageJ v1.50g software. […]
death. (A) The apoptotic protein casp ase 3 (Casp 3) was analy zed by western blot of U87 shCTRL and U87 shTau cells: for each s ample t he ratio between the amount of Casp3 and GAPDH was calculated as relative fold of the reference value (with or without the compound); n = 3 lysates, ns: non-si gnificant. […]
blot used for quantification. (B) The activity of necrotic LDH protein was analy zed by fluorescence emission in U87 shCTRL (upper panel) and U87 shTau (lower panel) cells. […]

U87 shCTRL cells = assay: Cell cycle by flow cytometry (propidium iodide), U87 shCTRL; details: 48 h
Procedure: as §1

U87 shTau cells [3] = assay: Mitotic index by high-content imaging, U87 shTau; details: 48 h, 5-times IC50 of compounds
Procedure: For scoring mitotic indexes, an automated high-content screening confocal microscopy approach was employed to identify cells undergoing mitosis from a large population of cells. For this, cells nuclei were stained with DAPI. Briefly, fibronectin-coated clear-glass-bottom black 96-well imaging plates were seeded with 100 µL of cell suspension (60,000 cell.mL^−1) in each well, with both U87 shCTRL and U87 ShTau cell lines. Cells were treated with 5-times IC50 of compounds for 48 h, then they were fixated inside the palates with 4% formaldehyde (in PBS pH 7.4) for 20 min at room temperature, permeabilized with PBS-Triton X-100 0.5% for 10 min at room temperature. DNA was then stained with DAPI (10 µg.mL^−1) for 5 min at room temperature and in the darkness. After being washed, cells were kept in PBS at 4 °C and imaged while in PBS. Automated confocal microscopy was carried out using an Opera Phenix (PerkinElmer) high-content screening microscope using a 20× Air/0.4 NA air objective. For each condition, 6 wells were prepared and a total of 61 fields were acquired for each well. Image analysis was performed using Harmony high-content analysis v4.8 software and PhenoLOGIC Machine Learning technology, which uses a learn-by-example approach. As a first step, nuclei were segmented and multiple parameters for these nuclei were calculated using Harmony v4.8 software building blocks. After training, PhenoLOGIC Machine Learning then selects the best parameters to detect nuclei undergoing the M phase of mitosis. From this, the mitotic index of each condition was calculated by dividing the number of cells undergoing mitosis over the total number of cells.

Compound | effect on cell cycle progression (U87 shTau cells [1]; 10 µM) | expression of caspase 3 (Casp3) [2] | effect on cell cycle progression (U87 shCTRL cells; 10 µM) | mitotic index (U87 shTau cells [3]) | %G1 (cells in G1 phase) (U87 shTau cells [1]; compounds 10 µM, NOC 1 µM) [%] | %G2/M (cells in G2/M phase) (U87 shTau cells [1]; compounds 10 µM, NOC 1 µM) [%] | %G1 (cells in G1 phase) (U87 shCTRL cells; compounds 10 µM, NOC 1 µM) [%] | %G2/M (cells in G2/M phase) (U87 shCTRL cells; compounds 10 µM, NOC 1 µM) [%]
Nc1nc2ccc3oc(-c4cccc(Oc5ccccc5)c4)cc(=O)c3c2s1 [Compound 2, 2-amino-7-(3-phenoxyphenyl)-9H-chromeno [6,5-d]thiazol-9-one] | no significant effect on cell cycle progression | no change in the expression of Casp3 | no significant effect on cell cycle progression | no significant variation of mitotic indexes |  |  |  | 
Nc1nc2ccc3oc(C(=O)O)cc(=O)c3c2s1 [Compound 5] |  | no change in the expression of Casp3 |  | 3 ± 0.39% | 62 ± 5 | 25 ± 1 | 53 ± 4 | 34 ± 5
